The values below come from patent US20040132107A1, “Functional assay for g-protein-coupled receptors based on insect cells” (priority 2003, published 2004).

The structures appear in SMILES notation.

Test [1] has as its target human beta2 Adrenergic receptor (Homo sapiens, UniProt P07550). The test is described as follows: B2AR insect-based assay cell lines (Sf9, transiently transfected), fractional luminescence. The following applies: FIG. 17.
Test [2] has as its target T1, human 5-HT1A GPCR (Homo sapiens, UniProt P08908).
T1 sequence (P08908 1-422): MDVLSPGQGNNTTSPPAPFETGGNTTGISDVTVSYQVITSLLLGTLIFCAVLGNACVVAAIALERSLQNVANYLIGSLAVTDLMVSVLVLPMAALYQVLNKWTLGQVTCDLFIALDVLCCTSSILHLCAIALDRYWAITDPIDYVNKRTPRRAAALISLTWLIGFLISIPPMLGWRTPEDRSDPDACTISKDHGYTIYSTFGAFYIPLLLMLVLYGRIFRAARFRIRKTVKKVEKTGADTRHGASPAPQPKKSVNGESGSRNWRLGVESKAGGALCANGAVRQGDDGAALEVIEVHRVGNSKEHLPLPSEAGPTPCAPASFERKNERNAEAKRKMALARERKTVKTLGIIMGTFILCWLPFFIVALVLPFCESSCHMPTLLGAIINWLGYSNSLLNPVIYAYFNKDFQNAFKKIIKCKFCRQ
The following applies: FIG. 16.

The target of test [3] is human Dopamine D1A GPCR (Homo sapiens, UniProt P21728). In words: DADR insect-based assay cell lines (Sf9; Dopamine D1A, Galpha16, aequorin), fractional luminescence.
Experimental: In one embodiment, the assay system of the invention was implemented using the human dopamine D1 (hDD1) GPCR, which is normally coupled to a Gs-type G protein.
To assay GPCR antagonists required a modified protocol. […] Light output was monitored for 75 seconds. […] Data analysis was performed as described above. An optional 10 second rocking step was added after each individual well was measured, to ensure that the insect-based assay cells arrayed in the plate stayed in suspension
Agonist and antagonist concentration-response curves were obtained by plotting graphs of A/(A+L) on the Y-axis versusLOG10 of ligand concentration (Molar) on the X-axis. Curve fitting was performed using the software package GraphPad Prism (GraphPad Software, Inc., San Diego, Calif., USA). The 3- or 4-Parameter Logistic equations were used for non-linear regression, and to acquire derived values (EC50 and Hill Slope).
Test [4] concerns the target T2, human Thromboxane A2 GPCR (Homo sapiens, UniProt P21731).
T2 construct: expressed in transfected cells; host or cells: Sf9, transiently transfected
T2 sequence (P21731 1-343): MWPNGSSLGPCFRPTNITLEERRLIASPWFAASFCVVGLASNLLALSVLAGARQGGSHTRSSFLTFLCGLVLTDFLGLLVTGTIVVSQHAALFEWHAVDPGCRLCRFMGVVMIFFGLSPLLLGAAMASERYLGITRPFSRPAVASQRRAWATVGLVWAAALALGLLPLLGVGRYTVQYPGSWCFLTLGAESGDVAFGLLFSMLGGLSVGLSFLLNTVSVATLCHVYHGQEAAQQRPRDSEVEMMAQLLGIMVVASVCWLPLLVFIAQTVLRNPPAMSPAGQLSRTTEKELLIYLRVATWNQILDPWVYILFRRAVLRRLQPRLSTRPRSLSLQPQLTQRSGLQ
In words: TA2R insect-based assay cell lines (Sf9, transiently transfected), fractional luminescence. As for the experimental part: Light output was monitored for 70 seconds. […] Data analysis was performed as described above
Agonist and antagonist concentration-response curves were obtained by plotting graphs of A/(A+L) on the Y-axis versusLOG10 of ligand concentration (Molar) on the X-axis.Curve fitting was performed using the software package GraphPad Prism (GraphPad Software, Inc., San Diego, Calif., USA). The 3- or 4-Parameter Logistic equations were used for non-linear regression, and to acquire derived values (EC50 and Hill Slope).

The target in test [5] is human 5-HT2A GPCR (Homo sapiens, UniProt P28223). In words: 5H2A insect-based assay cell lines (Sf9, transiently transfected), fractional luminescence. The following applies: increasing concentrations of agonist; FIG. 14.
For test [6], the target named is T3, human Histamine H1 GPCR (Homo sapiens, UniProt P35367).
T3 construct: expressed in transfected cells; host or cells: Sf9, transiently transfected
The test is described as follows: HH1R insect-based assay cell lines (Sf9, transiently transfected), fractional luminescence.

Where [7] appears, read: 100 microM, cells expressing all three assay components.

T3 sequence (P35367 whole entry): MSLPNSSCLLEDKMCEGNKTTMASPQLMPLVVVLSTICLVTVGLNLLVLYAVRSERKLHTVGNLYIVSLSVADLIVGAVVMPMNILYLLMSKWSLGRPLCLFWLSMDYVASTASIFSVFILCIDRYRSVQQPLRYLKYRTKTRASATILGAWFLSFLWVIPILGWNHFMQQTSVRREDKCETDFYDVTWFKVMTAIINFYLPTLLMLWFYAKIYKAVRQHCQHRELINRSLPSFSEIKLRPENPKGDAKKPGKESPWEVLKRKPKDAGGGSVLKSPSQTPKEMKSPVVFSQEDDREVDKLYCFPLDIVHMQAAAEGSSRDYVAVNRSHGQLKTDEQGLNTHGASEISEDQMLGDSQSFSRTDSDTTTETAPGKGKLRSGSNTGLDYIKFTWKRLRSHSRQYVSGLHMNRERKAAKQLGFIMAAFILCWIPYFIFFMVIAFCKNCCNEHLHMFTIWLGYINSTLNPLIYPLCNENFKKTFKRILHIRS
Sequence of human Dopamine D1A GPCR (P21728 whole entry): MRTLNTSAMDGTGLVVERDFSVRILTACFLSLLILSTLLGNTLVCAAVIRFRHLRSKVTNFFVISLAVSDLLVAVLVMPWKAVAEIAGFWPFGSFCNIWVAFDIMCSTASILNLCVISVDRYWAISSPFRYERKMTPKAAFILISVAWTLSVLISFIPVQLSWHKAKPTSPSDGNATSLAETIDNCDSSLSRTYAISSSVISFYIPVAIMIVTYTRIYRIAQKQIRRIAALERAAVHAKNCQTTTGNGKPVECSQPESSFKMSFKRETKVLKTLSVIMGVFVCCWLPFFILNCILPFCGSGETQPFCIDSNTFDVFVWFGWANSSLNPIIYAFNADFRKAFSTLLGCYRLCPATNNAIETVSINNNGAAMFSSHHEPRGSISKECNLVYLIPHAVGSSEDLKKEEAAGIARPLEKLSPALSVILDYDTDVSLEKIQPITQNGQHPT
Sequence of human beta2 Adrenergic receptor (P07550 whole entry): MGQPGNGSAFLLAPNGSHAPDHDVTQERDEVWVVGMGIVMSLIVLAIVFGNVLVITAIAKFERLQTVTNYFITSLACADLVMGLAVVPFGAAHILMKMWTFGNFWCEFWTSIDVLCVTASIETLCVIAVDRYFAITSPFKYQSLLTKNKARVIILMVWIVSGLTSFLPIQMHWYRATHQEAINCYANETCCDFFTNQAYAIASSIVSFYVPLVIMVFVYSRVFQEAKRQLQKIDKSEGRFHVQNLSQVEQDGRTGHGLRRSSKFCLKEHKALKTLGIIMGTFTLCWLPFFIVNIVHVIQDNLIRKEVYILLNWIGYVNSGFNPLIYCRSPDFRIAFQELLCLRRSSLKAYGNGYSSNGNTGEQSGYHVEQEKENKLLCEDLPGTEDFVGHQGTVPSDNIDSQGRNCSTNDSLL
Sequence of human 5-HT2A GPCR (P28223 whole entry): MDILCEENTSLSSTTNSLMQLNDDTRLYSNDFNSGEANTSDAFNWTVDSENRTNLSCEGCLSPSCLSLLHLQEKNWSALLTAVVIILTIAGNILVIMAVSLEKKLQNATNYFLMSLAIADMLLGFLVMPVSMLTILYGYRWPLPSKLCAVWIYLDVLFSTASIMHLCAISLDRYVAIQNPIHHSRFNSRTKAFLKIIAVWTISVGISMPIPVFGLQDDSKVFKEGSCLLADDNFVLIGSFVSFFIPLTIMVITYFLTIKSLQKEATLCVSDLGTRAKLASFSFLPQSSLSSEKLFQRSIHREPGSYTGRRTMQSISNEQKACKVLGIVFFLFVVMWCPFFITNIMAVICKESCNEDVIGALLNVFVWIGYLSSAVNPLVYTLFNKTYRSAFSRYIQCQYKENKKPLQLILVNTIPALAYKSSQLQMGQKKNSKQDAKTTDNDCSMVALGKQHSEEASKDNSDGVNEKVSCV

As to `NC[C@H](O)c1ccc(O)c(O)c1` [nor-epinephrine], the “response of assay cells to agonist” value in test [1] (setting [7]) was “respond”. Moreover, the “agonist response in the absence of Galpha16” value in test [1] (cells without Galpha16) is “reduced in magnitude”.

Take `CC(C)NCC(O)COc1cccc2ccccc12` (racemic) [DL-propranalol]: the “effect of antagonist pre-incubation on activation by serotonin” value in test [2] (antagonist 10 microM, then serotonin) is on record as “prevents subsequent activation”.

For the compound `Oc1cc2c(cc1O)C(c1ccccc1)CNCC2` (stereo not shown) [SKF38393], in test [3] (increasing concentrations of agonist, FIG. 5), the agonist concentration-activity curve result was “characteristic sigmoidal agonist concentration-activity curve”.

`O=C(O)CCC/C=C\C[C@@H]1[C@H](CNNC(=O)Nc2ccccc2)[C@H]2CC[C@@H]1O2` [SQ29,548]: the “block of U44069 agonist activity by pre-incubation with antagonist” value in test [4] (FIG. 10) was “can be blocked”. Besides, the antagonist concentration-activity curve result in test [4] (varying antagonist against fixed U44069 at 10 microM, FIG. 10) was “Characteristic sigmoidal antagonist concentration-activity curves”.

`NCCc1c[nH]c2ccc(O)cc12` [serotonin]: in test [2] (setting [7]), the “response of assay cells to agonist” value is on record as “respond”. For the same compound, the agonist concentration-activity curve entry in test [5] was “characteristic sigmoidal agonist concentration-activity curve”.

Take `CCCCC[C@H](O)/C=C/[C@H]1[C@@H]2CO[C@@H](C2)[C@@H]1C/C=C\CCCC(=O)O` [U44069]: in test [4] (increasing concentrations of agonist, FIG. 9), the agonist concentration-activity curve entry is on record as “characteristic sigmoidal agonist concentration-activity curve”.

Turning to `NCCc1c[nH]cn1` [histamine], in test [6], the agonist concentration-activity curve entry is reported as “characteristic sigmoidal agonist concentration-activity curve”; the “fractional response to histamine in the absence of Galpha16” value is given as “reduced in the absence of Galpha16, it is still significant”; the “response in the absence of the Histamine H1 receptor” value was “no response”.

`OCCN1CCN(CC/C=C2/c3ccccc3Sc3ccc(C(F)(F)F)cc32)CC1` [cis-Flupenthixol]: the “block of dopamine agonist activation by pre-incubation with antagonist” value in test [3] (pre-incubation with antagonist, then dopamine, FIGS. 4 and 6) is recorded as “can be blocked”. Also, the antagonist concentration-activity curve result in test [3] (varying antagonist against fixed dopamine at 100 microM, FIG. 6) is listed as “Characteristic sigmoidal antagonist concentration-activity curves”.

`Cc1ccc(/C(=C\CN2CCCC2)c2ccccn2)cc1.Cl` [triprolidone hydrochloride]: in test [6] (FIG. 12), the “block of histamine agonist activity by pre-incubation with antagonist” value is recorded as “can be blocked”. Also, the antagonist concentration-activity curve result in test [6] (varying antagonist against fixed histamine at 100 microM, FIG. 12) is given as “Characteristic sigmoidal antagonist concentration-activity curves”.
